{"source": "patent US6436913B1", "about": "“Use of estramustine phosphate in the treatment of bone metastasis” (Pharmacia & Upjohn Company, priority 2000, dated 2002)", "key": {"[1]": {"system": "mouse calvaria", "test": "Bone resorption assay, organ culture with 45Ca-prelabeled mouse calvaria (PTH-stimulated 45Ca release)", "format": "cell-based", "details": "for Resorption / PTH-stimulated 45Ca release, result in words / Resorption, result in words: present only during preincubation; for Resorption / PTH-stimulated 45Ca release, result in words: then washed away; for Bone resorption (45Ca release), result in words: in vitro mouse calvaria, compound present during culture", "description": "This example used the organ culture technique with mouse calvaria.\nThe organ culture technique was used with ^45Ca-prelabeled mouse calvaria. The method has been described by Lerner (1987) and Ljunggren et al. (1991). Newborn mice were injected subcutaneously with ^45CaCl (1.5 μCi/animal). After four days their calvaria were dissected, split into quarters and preincubated in phenol red free CMRL 1066 medium supplemented with 0.1% bovine serum albumin and 50 μg/ml gentamicin for 24 hours at 37° C. in a humidified atmosphere of 5% CO2 in air in the presence of indomethacin (1 μmol/l) and 10 nmol/l bovine parathyroid hormone (PTH). After washing the bone pieces, the medium was changed and cultures incubated for three more days in the same medium but without indomethacin in the presence or absence of estramustine phosphate or clodronate. Resorption was measured by assaying the ^45Ca liberated into the medium using a standard technique for liquid scintillation counting. Total ^45Ca was determined after hydrolysing the calvaria in 6 mol/l HCI overnight. Bone resorption was studied in various concentrations of estramustine phosphate and the effect of estramusine phosphate present only during the preincubation stage was checked in order to study its cytotoxcity.\nResults are expressed as mean±SEM, n=5 or 10. Inhibition percentage was calculated as follows\nInhibition %=^45Ca released control bones (%)−^45Ca released from sample bones (%) ^45Ca released control bones*100"}, "[2]": {"test": "clinical", "details": "male, human, serum, oral, 3200 mg", "method": "(§1) The first group of six patients were given 3200 mg daily of clodronate only for four days. On the fifth day the AUC0-24h for the drug was calculated from serum concentrations of repeated blood samples. On the sixth day, 560 mg estramustine phosphate was add per oral to the clodronate treatment for the following four days. On day ten, the AUC0-24h for both drugs was calculated.\n(§2) The second group of six patients were give orally 560 mg daily of estramustine phosphate only for four days. On the fifth day the AUC0-24h for the drug was calculated from serum concentrations of repeated blood samples. On the sixth day, 3200 mg clodronate was added to the estramustine phosphate treatment for the following four days. On day ten, the AUC0-24h for both drugs was calculated. The clodronate was provided as 400 mg capsules, and the estramustine phosphate used was estracyt in 140 mg capsules.\n(§3) The method used in the analysis of the serum estramustine phosphate concentrations measures estrone and is insensitive to any metabolites. The estradiol-related metabolites (estramustine and estradiol) were not analyized in connection with the bioanalysis."}, "[3]": {"test": "Mutual bioavailability of estramustine phosphate and clodronate: serum AUC0-24h and Cmax in patients", "details": "for AUC0-24h and Cmax, drug alone versus concomitantly with the other drug / Bioavailability, effect of adding the other drug: patients, clodronate 3200 mg and estramustine phosphate 560 mg daily; for AUC0-24h Estracyt: serum, mean", "method": "as §1, §2, §3"}, "[4]": {"details": "Experiment 2 (compound present only during preincubation), 100 μmol/l, mean±SEM"}}, "data": [{"compound": "O=P(O)(O)C(Cl)(Cl)P(=O)(O)O", "note": "[Clodronate, Disodium clodronate]", "values": [{"measurement": "inhibition at 0.1 µM", "setting": "[1]; Mus musculus, Experiment 1, 0.1 μmol/l, mean±SEM, n=5 or 10", "result": "0.9 ± 1.2", "unit": "%"}, {"measurement": "inhibition at 1 µM", "setting": "[1]; Mus musculus, Experiment 1, 1 μmol/l, mean±SEM, n=5 or 10", "result": "3.5 ± 4.2", "unit": "%"}, {"measurement": "inhibition at 10 µM", "setting": "[1]; Mus musculus, Experiment 1, 10 μmol/l, mean±SEM, n=5 or 10", "result": "28.3 ± 3.8", "unit": "%"}, {"measurement": "inhibition at 100 µM", "setting": "[1]; Mus musculus, Experiment 1, 100 μmol/l, mean±SEM, n=5 or 10", "result": "51.4 ± 1.9", "unit": "%"}, {"measurement": "inhibition at 1000 µM", "setting": "[1]; Mus musculus, Experiment 1, 1000 μmol/l (precipitate noted for estramustine phosphate), mean±SEM", "result": "25.7 ± 6.6", "unit": "%"}, {"measurement": "inhibition at 100 µM", "setting": "[1]; Mus musculus, Experiment 2 (compound present only during preincubation), 100 μmol/l, mean±SEM", "result": "55.9 ± 0.5", "unit": "%"}, {"measurement": "Resorption / PTH-stimulated 45Ca release, result in words", "setting": "[1]", "result": "also inhibits resorption"}, {"measurement": "AUC(0-t)", "setting": "[2]", "result": 19300, "unit": "ng·h/mL"}, {"measurement": "Cmax", "setting": "[2]", "result": 1580, "unit": "ng/mL"}, {"measurement": "AUC0-24h and Cmax, drug alone versus concomitantly with the other drug", "setting": "[3]", "result": "did not differ significantly"}, {"measurement": "Bioavailability, effect of adding the other drug", "setting": "[3]", "result": "no effect"}]}, {"compound": "C[C@]12CC[C@@H]3c4ccc(OC(=O)N(CCCl)CCCl)cc4CC[C@H]3[C@@H]1CC[C@@H]2OP(=O)([O-])[O-].[Na+].[Na+]", "note": "[Estramustine phosphate, Estramustine phosphate sodium]", "values": [{"measurement": "45Ca-release (%)", "setting": "[1]; Experiment 1, 0.01 μmol/l, mean±SEM", "result": "51.5 ± 3.0", "unit": "%"}, {"measurement": "Inhibition %", "setting": "[1]; Experiment 1, 0.01 μmol/l, mean±SEM, n=5 or 10", "result": "5.5 ± 5.5", "unit": "%"}, {"measurement": "45Ca-release (%)", "setting": "[1]; Experiment 1, 0.1 μmol/l, mean±SEM", "result": "50.6 ± 1.6", "unit": "%"}, {"measurement": "Inhibition %", "setting": "[1]; Experiment 1, 0.1 μmol/l, mean±SEM, n=5 or 10", "result": "7.2 ± 2.9", "unit": "%"}, {"measurement": "45Ca-release (%)", "setting": "[1]; Experiment 1, 1 μmol/l, mean±SEM", "result": "55.4 ± 2.9", "unit": "%"}, {"measurement": "Inhibition %", "setting": "[1]; Experiment 1, 1 μmol/l, mean±SEM, n=5 or 10", "result": "2.0 ± 5.4", "unit": "%"}, {"measurement": "45Ca-release (%)", "setting": "[1]; Experiment 1, 10 μmol/l, mean±SEM", "result": "34.7 ± 3.1", "unit": "%"}, {"measurement": "Inhibition %", "setting": "[1]; Experiment 1, 10 μmol/l, mean±SEM, n=5 or 10", "result": "34.7 ± 3.1", "unit": "%"}, {"measurement": "45Ca-release (%)", "setting": "[1]; Experiment 1, 100 μmol/l, mean±SEM", "result": "16.7 ± 0.2", "unit": "%"}, {"measurement": "Inhibition %", "setting": "[1]; Experiment 1, 100 μmol/l, mean±SEM, n=5 or 10", "result": "65.3 ± 2.3", "unit": "%"}, {"measurement": "Inhibition %", "setting": "[1]; Experiment 1, 1000 μmol/l (precipitate noted for estramustine phosphate), mean±SEM", "result": "55.9 ± 0.6", "unit": "%"}, {"measurement": "45Ca-release (%)", "setting": "[1]; Experiment 1, 1000 μmol/l (precipitate), mean±SEM", "result": "24.0 ± 2.2", "unit": "%"}, {"measurement": "Inhibition %", "setting": "[1]; Experiment 2 (compound present only during preincubation), 10 μmol/l, mean±SEM", "result": "−17.9 ± 8.7", "unit": "%"}, {"measurement": "45Ca-release (%)", "setting": "[1]; [4]", "result": "11.9 ± 0.6", "unit": "%"}, {"measurement": "Inhibition %", "setting": "[1]; [4]", "result": "70.4 ± 1.4", "unit": "%"}, {"measurement": "Bone resorption (45Ca release), result in words", "setting": "[1]", "result": "inhibited bone resorption in this in vitro model concentration-dependently and about as effectively as clodronate"}, {"measurement": "Bone resorption (45Ca release), result in words", "setting": "[1]; listed as estramustine phosphate sodium", "result": "dose-dependently inhibited"}, {"measurement": "Resorption / PTH-stimulated 45Ca release, result in words", "setting": "[1]", "result": "PTH could not stimulate ^45Ca release from bones"}, {"measurement": "Resorption, result in words", "setting": "[1]; 10 μmol/l", "result": "slightly increased"}, {"measurement": "Resorption, result in words", "setting": "[1]; 100 μmol/l", "result": "strongly inhibited"}, {"measurement": "AUC0-24h Estracyt", "setting": "[3]; Estracyt 560 mg daily concomitantly with Clodronate 3200 mg", "result": 84.74, "unit": "µM·h"}, {"measurement": "AUC0-24h Estracyt", "setting": "[3]; Estracyt only, 560 mg daily orally", "result": 47.38, "unit": "µM·h"}, {"measurement": "AUC0-24h and Cmax, drug alone versus concomitantly with the other drug", "setting": "[3]", "result": "differed statistically"}, {"measurement": "Bioavailability, effect of adding the other drug", "setting": "[3]", "result": "almost doubled"}]}]}
